Data: patent US9650348B2, “Triazines with suitable spacers for treatment and/or prevention of HIV infections” (Universiteit Antwerpen, priority 2012, dated 2017)
Where two headings read alike, the source gives them in different places.

Key:
[1] = tested on: HIV-1 BaL; assay: TZM-bl antiviral assay, wild type HIV-1 Ba-L; type: cell-based; conditions: Human immunodeficiency virus 1, BAL, read-out: Antiviral activity-wild type viruses EC50 TZM-bI Ba-L
Description: (§1) The JC53-BL cell line, also known as the TZM-bl cell line (NIH AIDS Research and Reference Reagent Program, Germantown, USA), was used for the evaluation of anti-HIV activity. TZM-bl cells were cultured in Dulbecco's […] (DMEM) (Lonza) containing 10% heat-inactivated FBS and 50 μg gentamycin/mL at 37° C. in a humidified 5% CO2, 95% air environment. Twice a week the cells were treated with 0.25% trypsin-1 mM EDTA (Lonza) for 10 minutes. The resulting cell suspension was washed with an equivalent amount of TZM-bl medium and subsequently seeded in a T75 culture flask (Greiner Bio-One, Germany) at 10^6 cells in 20 mL medium.
(§2) The antiviral activity of the newly designed compounds was measured by pre-incubating ten thousand TZM-bl cells (at 10^5 cells/mL in culture medium supplemented with 30 μg/mL DEAE dextran) in a 96-well plate for 30 minutes at 37° C., 5% CO2 in the presence or absence of serial dilutions of the respective compound. Subsequently, 200 TCID50 of HIV-1 BaL was added to each well and cultures were incubated for 48 hours before quantifying luciferase activity, using a TriStar LB941 luminometer (Berthold Technologies GmbH & Co. KG, Bad Wildbad, Germany). Each condition was evaluated in triplicate wells and in at least two independent experiments. The antiviral activity of the compound was expressed as the percentage of viral inhibition compared to the untreated controls and subsequently plotted against the compound concentration.
(§3) The target compounds are evaluated for their anti-HIV-1 activity and cytotoxicity. In a primary screen, the anti-HIV activity against the laboratory strain Ba-L and against a primary subtype C isolate was determined in the TZM-bl cell line. Cellular toxicity on TZM-bl cells was evaluated using WST-1. […] In addition, the activity against NNRTI-resistant viruses (V106A, Y181C, L100I+K103N, L100I+E138K+T369I and K101E+K103N+V108VI+V179M+Y181C+E138Q) was tested. Diarylpyrimidines (DAPY) TMC120, TMC125 and TMC278 were used as reference compounds.

[2] = tested on: Ba-L K101E + K103N + V108VI + V179M + Y181C + E138Q; assay: Antiviral activity, NNRTI-resistant virus K101E+K103N+V108VI+V179M+Y181C+E138Q; type: cell-based, HIV-1; conditions: for FC (*): Ba-L, * = K101E + K103N + V108VI + V179M + Y181C + E138Q; for EC50: Human immunodeficiency virus 1, BAL, read-out: Antiviral activity-NNRTI-resistant viruses EC50 Ba-L *
Description: (§4) The target compounds are evaluated for their anti-HIV-1 activity and cytotoxicity. In a primary screen, the anti-HIV activity against the laboratory strain Ba-L and against a primary subtype C isolate was determined in the TZM-bl cell line. Cellular toxicity on TZM-bl cells was evaluated using WST-1. Based on the primary screening results, the target compound was further evaluated for anti-HIV activity in different primary cells, including peripheral blood mononuclear cells, dendritic cells and CD4+ T lymphocytes. In addition, the activity against NNRTI-resistant viruses (V106A, Y181C, L100I+K103N, L100I+E138K+T369I and K101E+K103N+V108VI+V179M+Y181C+E138Q) was tested. Diarylpyrimidines (DAPY) TMC120, TMC125 and TMC278 were used as reference compounds.

[3] = in vitro; type: cell-based; conditions: human, Cytotoxicity CC50 TZM-bI
Excerpt: The Water Soluble Tetrazolium-1 (WST-1) Cell Proliferation Assay is a colorimetric assay for the measurement of cell proliferation and viability. The assay is based on the cleavage of the tetrazolium salt WST-1 (4-[3-(4-iodophenyl)-2-(4-nitrophenyl)-2H-5-tetrazolio]-1,3-benzene disulfonate) to a formazan dye by a complex cellular mechanism. This bioreduction is largely dependent on the glycolytic production of NAD(P)H in viable cells. Therefore, the amount of formazan dye formed correlates directly to the number of viable cells in the culture, and can be quantified by measuring the absorbance at 450 nm in a multiwell plate reader. The greater the number of viable cells, the greater the amount of formazan dye produced following the addition of WST-1. Cytotoxicity of each compound was evaluated using this WST-1 viability assay, according to the manufacturer's instructions (Roche, Vilvoorde, Belgium).
Briefly, ten thousand TZM-bl cells were seeded in a 96-well plate and cultured for 2 days in the presence of a serial dilution of compound. After this 48 h exposure, Cell Proliferation Reagent, WST-1, was added and absorbance at 450 nm was quantified after 90 min using a microplate reader (BioRad, Tokio, Japan). Each compound was tested in three replicate wells and in at least two independent experiments.
as §3

[4] = tested on: VI829; assay: TZM-bl antiviral assay, wild type VI829 (primary subtype C isolate); type: cell-based, HIV-1; conditions: read-out: Antiviral activity-wild type viruses EC50 TZM-bI VI829
Description: as §1, §2, §3

[5] = tested on: Ba-L V106A; assay: Antiviral activity, NNRTI-resistant virus V106A; type: cell-based, HIV-1; conditions: for FC (V106A): Ba-L V106A; for EC50: Human immunodeficiency virus 1, BAL, read-out: Antiviral activity-NNRTI-resistant viruses EC50 Ba-L V106A
Description: as §3

[6] = tested on: VI829 Y181C; assay: Antiviral activity, NNRTI-resistant virus Y181C; type: cell-based, HIV-1; conditions: for EC50: Human immunodeficiency virus 1, read-out: Antiviral activity-NNRTI-resistant viruses EC50 VI829 Y181C; for FC (Y181C): VI829 Y181C
Description: as §3

[7] = tested on: VI829 L100I+K103N; assay: Antiviral activity, NNRTI-resistant virus L100I+K103N; type: cell-based, HIV-1; conditions: for EC50: Human immunodeficiency virus 1, read-out: Antiviral activity-NNRTI-resistant viruses EC50 VI829 L100I+K103N; for FC (L100I+K103N): VI829 L100I+K103N
Description: as §3

[8] = tested on: VI829 L100I+E138K+T369I; assay: Antiviral activity, NNRTI-resistant virus L100I+E138K+T369I; type: cell-based, HIV-1; conditions: VI829, ** = L1001 + E138K + T3691
Description: as §4

[9] = tested on: HIV-1 Ba-L; assay: Antiviral activity in peripheral blood mononuclear cells (PBMC), Ba-L; type: cell-based; conditions: Human immunodeficiency virus 1, BAL, Ba-L wild type, read-out: Antiviral activity-wild type viruses EC50 PBMC Ba-L
[10] = tested on: HIV-1 Ba-L; assay: Antiviral activity in dendritic cells / CD4+ T lymphocytes (DC/T4), Ba-L; type: cell-based; conditions: Human immunodeficiency virus 1, BAL; DC/T4, Ba-L wild type; read-out: Antiviral activity-wild type viruses EC50 DC/T4 Ba-L
[11] = Human immunodeficiency virus 1, TZM-bl cells, VI829 wild type

| SMILES | EC50 ([1]; TZM-bl cells, Ba-L wild type) | FC (*) [2] | EC50 [2] | CC50 at 48 h [3] | EC50 [4, 11] | FC (V106A) [5] | EC50 [5] | EC50 [6] | FC (Y181C) [6] | EC50 [7] | FC (L100I+K103N) [7] | FC (**) [8] | EC50 [9] | EC50 [10] | EC50 ([1]; TZM-bl) | EC50 ([4]; Human immunodeficiency virus 1, TZM-bl) |
| --- | --- | --- | --- | --- | --- | --- | --- | --- | --- | --- | --- | --- | --- | --- | --- | --- |
| Cc1cc(C=CC#N)cc(C)c1Nc1nc(Nc2ccc(C#N)cc2)nc(N2CCOCC2)n1 [T8, 4-((4-((4-(2-cyanovinyl)-2,6-dimethylphenyl)amino)-6-morpholino-1,3,5-triazin-2-yl)amino)benzonitrile] | 7.1 nM | 89 | 634 nM | 11400 nM |  |  |  |  |  |  |  |  |  |  |  |  |
| CNc1nc(Nc2ccc(C#N)cc2)nc(Nc2c(C)cc(C=CC#N)cc2C)n1 [T4, 4-((4-((4-(2-cyanovinyl)-2,6-dimethylphenyl)amino)-6-(methylamino)-1,3,5-triazin-2-yl)amino)benzonitrile] | 1.7 nM | 39 | 66 nM | 5910 nM |  |  |  |  |  |  |  |  |  |  |  |  |
| Cc1cc(C=CC#N)cc(C)c1Nc1nc(Nc2ccc(C#N)cc2)nc(N2CCCCC2)n1 [T7, 4-((4-((4-(2-cyanovinyl)-2,6-dimethylphenyl)amino)-6-(piperidin-1-yl)-1,3,5-triazin-2-yl)amino)benzonitrile] | 18 nM | >55 | > 1000 nM | > 100000 nM | 19 nM | 7 | 126 nM | 221 nM | 12 | > 1000 nM | >50 | >50 |  |  |  |  |
| Cc1cc(C=CC#N)cc(C)c1Nc1nc(Nc2ccc(C#N)cc2)nc(NC(C)C)n1 [T6, 4-((4-((4-(2-cyanovinyl)-2,6-dimethylphenyl)amino)-6-(isopropylamino)-1,3,5-triazin-2-yl)amino)benzonitrile] | 5 nM | 85 | 424 nM | 24700 nM | 4.3 nM | 6 | 30 nM | 45 nM | 10 | 184 nM | 43 | 225 | 14 nM | 1.4 nM |  |  |
| Cc1cc(C=CC#N)cc(C)c1Oc1nc(Nc2ccc(C#N)cc2)nc(N(C)C)n1 [T13, 4-((4-(4-(2-cyanovinyl)-2,6-dimethylphenoxy)-6-(dimethylamino)-1,3,5-triazin-2-yl)amino)benzonitrile] | 3.4 nM | 231 | 786 nM | 7850 nM |  |  |  |  |  |  |  |  |  |  |  |  |
| Cc1cc(C=CC#N)cc(C)c1Nc1nc(Nc2ccc(C#N)cc2)nc(N2CCN(C)CC2)n1 [T9, 4-((4-((4-(2-cyanovinyl)-2,6-dimethylphenyl)amino)-6-(4-methylpiperazin-1-yl)-1,3,5-triazin-2-yl)amino)benzonitrile] | 8.5 nM | 37 | 316 nM | 21200 nM |  |  |  |  |  |  |  |  |  |  |  |  |
| Cc1cc(C#N)cc(C)c1Oc1nc(Nc2ccc(C#N)cc2)nc(N)c1Br [TMC125, Etravirine, reference compound] |  | 51 | 76 nM |  |  | 1 | 1.6 nM | 7.6 nM | 5 | 14 nM | 9 | 62 | 5.9 nM | 1.8 nM | 1.5 nM | 1.5 nM |
| Cc1cc(C=CC#N)cc(C)c1Oc1nc(N)nc(Nc2ccc(C#N)cc2)n1 [T11, 4-((4-amino-6-(4-(2-cyanovinyl)-2,6-dimethylphenoxy)-1,3,5-triazin-2-yl)amino)benzonitrile] | 1.1 nM | 56 | 62 nM | 19100 nM | 0.64 nM | 2 | 2.5 nM | 4.1 nM | 6 | 17 nM | 27 | 167 |  |  |  |  |
| CNc1nc(Nc2ccc(C#N)cc2)nc(Oc2c(C)cc(C=CC#N)cc2C)n1 [T12, 4-((4-(4-(2-cyanovinyl)-2,6-dimethylphenoxy)-6-(methylamino)-1,3,5-triazin-2-yl)amino)benzonitrile] | 1.6 nM | 48 | 77 nM | 20000 nM | 1.6 nM | 4 | 6.5 nM | 7.4 nM | 5 | 24 nM | 15 | 44 |  |  |  |  |
| Cc1cc(C=CC#N)cc(C)c1Nc1nc(Nc2ccc(C#N)cc2)nc(N(C)C)n1 [T5, 4-((4-((4-(2-cyanovinyl)-2,6-dimethylphenyl)amino)-6-(dimethylamino)-1,3,5-triazin-2-yl)amino)benzonitrile] | 5.8 nM | 78 | 455 nM | 8060 nM | 4.4 nM | 2 | 12 nM | 27 nM | 6 | 74 nM | 17 | 31 |  |  |  |  |
| N#CC=Cc1cc(F)c(Nc2nc(N)nc(Nc3ccc(C#N)cc3)n2)c(F)c1 [T10, 4-((4-amino-6-((4-(2-cyanovinyl)-2,6-difluorophenyl)amino)-1,3,5-triazin-2-yl)amino)benzonitrile] | 0.53 nM | 1113 | 590 nM | 21400 nM |  |  |  |  |  |  |  |  |  |  |  |  |
| Cc1cc(C=CC#N)cc(C)c1Oc1nc(Nc2ccc(C#N)cc2)nc(N2CCCCC2)n1 [T14, 4-((4-(4-(2-cyanovinyl)-2,6-dimethylphenoxy)-6-(piperidin-1-yl)-1,3,5-triazin-2-yl)amino)benzonitrile] | 21 nM | >47 | > 1000 nM | > 100000 nM |  |  |  |  |  |  |  |  |  |  |  |  |
